Values of other authors as cited in patent US12508236B2, “Solid nanoparticle with inorganic coating” (Nanexa AB, priority 2013, dated 2025).
“Also recorded” adds a separate entry of the source.

Row | solubility in heptane (heptane) | Structure (SMILES) | water solubility
1 | – | CCOC(=O)C1=C(C)NC(C)=C(C(=O)OC)C1c1cccc(Cl)c1Cl (racemic) [Felodipine, (RS)-3-ethyl 5-methyl 4-(2,3-dichlorophenyl)-2,6-dimethyl-1,4-dihydropyridine-3,5-dicarboxylate] | very low water solubility
2 | low solubility | CC(=O)Nc1ccc(O)cc1 [Paracetamol, N-(4-hydroxifenyl)acetamid] | high water solubility; also recorded: very water soluble
